Like-named read-outs stand apart in the source and are kept apart here. Numbered stars: 1 amine (or outer) side, 2 acyl side, 3 side chain; on linkers, the order of the positions; unused ones are H or OH. Bridge positions count the residues as written; N and C are the ends. Square brackets hold non-standard residues; d marks the D form. Peptide text beside a SMILES is read from it. Trp(βS-Me,7-OMe) = COc1cccc2c([C@H](C)[C@H](N)C(=O)O)c[nH]c12; Phe(3R-OH) = O=C([C@@H](N[*:1])[C@H](O[*:3])c1ccccc1)[*:2]; Morpholine(3S-CO,6,6-Me2) = CC1(C)CN[C@H](C(=O)O)CO1; Trp(7-Cl) = N[C@@H](Cc1c[nH]c2c(Cl)cccc12)C(=O)O; Phe(3-COOH) = N[C@@H](Cc1cccc(C(=O)O)c1)C(=O)O; Phe(4-CONH2) = NC(=O)c1ccc(C[C@H](N)C(=O)O)cc1; Phe(4-COOH) = N[C@@H](Cc1ccc(C(=O)O)cc1)C(=O)O; Trp(7-aza) = N[C@@H](Cc1c[nH]c2ncccc12)C(=O)O; 3Pal(6-OMe) = COc1ccc(C[C@H](N)C(=O)O)cn1; X58 = O=C([C@H](CCCCC(F)(F)F)N[*:1])[*:2]; Pip(5R-OH) = O=C(O)[C@@H]1CC[C@@H](O)CN1; X13 = O=C([C@H]1CC[C@@H](N[*:1])C1)[*:2]; X1 = O=C([C@@H]1CC[C@H](N[*:1])C1)[*:2]; Ala(2-furyl) = N[C@@H](Cc1ccco1)C(=O)O; Dap(CONH2) = NC(=O)NC[C@H](N)C(=O)O; Lys(Me2) = CN(C)CCCC[C@H](N)C(=O)O; Val(3-OH) = CC(C)(O)[C@H](N)C(=O)O; Pip(4-aza) = O=C(O)[C@@H]1CNCCN1; 4Pal = N[C@@H](Cc1ccncc1)C(=O)O; NMeE = CN[C@@H](CCC(=O)O)C(=O)O; X33 = N#CCCN(CC(=O)[*:2])[*:1]; Pip = O=C(O)[C@@H]1CCCCN1; αMeS = C[C@](N)(CO)C(=O)O; Nle = CCCC[C@H](N)C(=O)O; Sar = CNCC(=O)O
How the values were obtained:
[1] = biological target: T1, human soluble TNFR1 (sTNFR1) (Homo sapiens, UniProt P19438); assay: Human sTNFR1-peptide displacement assay (LanthaScreen Eu TR-FRET binding assay)
T1 construct: made in house; host or cells: Sf21 (baculovirus)
T1 sequence (P19438 with tags, fused parts or gaps): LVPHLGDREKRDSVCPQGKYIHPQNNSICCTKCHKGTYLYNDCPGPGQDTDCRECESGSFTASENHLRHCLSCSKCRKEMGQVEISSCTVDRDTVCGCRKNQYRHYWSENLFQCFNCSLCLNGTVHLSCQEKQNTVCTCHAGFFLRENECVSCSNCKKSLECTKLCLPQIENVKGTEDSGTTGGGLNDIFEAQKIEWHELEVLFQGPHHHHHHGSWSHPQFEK
How it was run: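 Readout is the 665/615 nm TR-FRET ratio (Eu anti-His donor, streptavidin-Alexa647 acceptor), normalized to DMSO and saturating displacer, fit by Morrison-based five-parameter logistic for Kd^app. His-tagged sTNFR1 (1-211) prebound to 100 nM biotinylated peptide SEQ ID NO.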

[2] = biological target: T2, TNFα-induced NF-κB signal transduction pathway (TNFR1 signaling) in THP-1 cells (Homo sapiens, UniProt P19438); assay: THP-1 Lucia NF-κB reporter cell assay, inhibition of TNFα-induced NF-κB signaling; format: cell-based; settings: THP-1 NF-κB Lucia reporter cells, 10 ng/mL TNFα, 16-18 h, secreted luciferase; read-out: THP-1 IC50
T2 sequence (P19438 30-455): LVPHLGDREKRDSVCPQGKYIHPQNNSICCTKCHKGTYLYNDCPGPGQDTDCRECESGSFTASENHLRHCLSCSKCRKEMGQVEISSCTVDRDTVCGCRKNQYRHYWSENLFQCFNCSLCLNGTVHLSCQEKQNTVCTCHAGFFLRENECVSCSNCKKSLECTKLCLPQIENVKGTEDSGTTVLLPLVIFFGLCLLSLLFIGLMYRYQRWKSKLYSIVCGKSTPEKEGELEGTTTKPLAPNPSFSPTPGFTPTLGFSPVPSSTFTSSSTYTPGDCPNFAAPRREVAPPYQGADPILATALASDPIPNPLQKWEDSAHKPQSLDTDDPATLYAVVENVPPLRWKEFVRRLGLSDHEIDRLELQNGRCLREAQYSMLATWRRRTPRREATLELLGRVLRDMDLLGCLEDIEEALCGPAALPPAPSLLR
How it was run: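 Read-out: secreted Lucia luciferase luminescence (QUANTI-Luc) from supernatant after 16-18 h, 37 °C, 10 ng/mL rhTNFα. Peptide pretreatment 1 h at 37 °C; 20,000 cells/well, selection antibiotics omitted. IC50 via 4-parameter logistic model against min/max controls.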

SMILES	IC50 [1] [nM]	Kd [1] [nM]	IC50 [2] [nM]	Kd ([1]; displacement of biotinylated peptide SEQ ID NO. 1 from sTNFR1, 20 point titration, 5-parameter fit based on Morrison equation (tight binding), read-out: TR-FRET Kd^app) [nM]	IC50 ([1]; displacement of biotinylated peptide SEQ ID NO. 1 from sTNFR1, weaker binders, 10 pts titration, 4-parameter logistic model, read-out: TR-FRET, IC50) [nM]
CCCC[C@@H]1NC(=O)CSC[C@@H](C(N)=O)NC(=O)[C@H]([C@@H](C)c2c[nH]c3c(OC)cccc23)NC(=O)CN(C)C(=O)[C@H](Cc2ccc(O)cc2)NC(=O)[C@H](Cc2ccc(C(=O)O)cc2)NC(=O)[C@](C)(CO)NC(=O)[C@H](Cc2c[nH]c3c(Cl)cccc23)NC(=O)[C@H](Cc2ccncc2)NC(=O)[C@H](CC(N)=O)NC(=O)[C@H](CCC(=O)O)N(C)C(=O)[C@H](Cc2c[nH]c3ncccc23)NC(=O)[C@H]([C@H](O)c2ccccc2)NC(=O)[C@H](Cc2ccncc2)NC1=O [SEQ ID NO. 211] ({CH2CO}-[Nle][4Pal][Phe(3R-OH)][Trp(7-aza)][NMeE]N[4Pal][Trp(7-Cl)][αMeS][Phe(4-COOH)]Y[Sar][Trp(βS-Me,7-OMe)]C-NH2; thioether N-14)	0.79	0.63	3.3		
COc1cccc2c([C@H](C)[C@@H]3NC(=O)CN(C)C(=O)[C@H](Cc4ccc(O)cc4)NC(=O)[C@H](Cc4ccc(C(=O)O)cc4)NC(=O)[C@](C)(CO)NC(=O)[C@H](Cc4c[nH]c5c(Cl)cccc45)NC(=O)[C@H](Cc4ccncc4)NC(=O)[C@H](CC(N)=O)NC(=O)[C@H](CCC(=O)O)N(C)C(=O)[C@H](Cc4c[nH]c5ccccc45)NC(=O)[C@@H]4CNCCN4C(=O)[C@H](Cc4ccncc4)NC(=O)[C@H](CCCCC(F)(F)F)NC(=O)[C@@H]4CC[C@@H](C4)NC3=O)c[nH]c12 [SEQ ID NO. 213] (cyclo([4Pal][Trp(7-Cl)][αMeS][Phe(4-COOH)]Y[Sar][Trp(βS-Me,7-OMe)][X1][X58][4Pal][Pip(4-aza)]W[NMeE]N))		0.31	1		
CCCC[C@@H]1NC(=O)[C@H]2CC[C@H](C2)NC(=O)[C@H]([C@@H](C)c2c[nH]c3c(OC)cccc23)NC(=O)CN(C)C(=O)[C@H](Cc2ccc(O)cc2)NC(=O)[C@H](Cc2ccc(C(N)=O)cc2)NC(=O)[C@](C)(CO)NC(=O)[C@H](Cc2c[nH]c3c(Cl)cccc23)NC(=O)[C@H](Cc2ccncc2)NC(=O)[C@H](CC(N)=O)NC(=O)[C@H](CCC(=O)O)N(C)C(=O)[C@H](Cc2c[nH]c3ccccc23)NC(=O)[C@@H]2COC(C)(C)CN2C(=O)[C@H](Cc2ccncc2)NC1=O [SEQ ID NO. 214] (cyclo([4Pal][Trp(7-Cl)][αMeS][Phe(4-CONH2)]Y[Sar][Trp(βS-Me,7-OMe)][X13][Nle][4Pal][Morpholine(3S-CO,6,6-Me2)]W[NMeE]N))			3.7	0.61	0.95
CCCC[C@@H]1NC(=O)CSC[C@@H](C(N)=O)NC(=O)[C@H]([C@@H](C)c2c[nH]c3c(OC)cccc23)NC(=O)CN(C)C(=O)[C@H](Cc2ccc(O)cc2)NC(=O)[C@H](Cc2ccc(C(=O)O)cc2)NC(=O)[C@](C)(CO)NC(=O)[C@H](Cc2c[nH]c3c(Cl)cccc23)NC(=O)[C@H](Cc2ccncc2)NC(=O)[C@H](CC(N)=O)NC(=O)[C@H](CCC(=O)O)N(C)C(=O)[C@H](Cc2c[nH]c3ncccc23)NC(=O)[C@H](C(C)(C)O)NC(=O)[C@H](Cc2c[nH]cn2)NC1=O [SEQ ID NO. 217] ({CH2CO}-[Nle]H[Val(3-OH)][Trp(7-aza)][NMeE]N[4Pal][Trp(7-Cl)][αMeS][Phe(4-COOH)]Y[Sar][Trp(βS-Me,7-OMe)]C-NH2; thioether N-14)	1	0.73	4.4		
CCCC[C@@H]1NC(=O)[C@@H]2CC[C@@H](C2)NC(=O)[C@H]([C@@H](C)c2c[nH]c3c(OC)cccc23)NC(=O)CN(C)C(=O)[C@H](Cc2ccc(O)cc2)NC(=O)[C@H](Cc2ccc(C(=O)O)cc2)NC(=O)[C@](C)(CO)NC(=O)[C@H](Cc2c[nH]c3c(Cl)cccc23)NC(=O)[C@H](Cc2ccncc2)NC(=O)[C@H](CNC(N)=O)NC(=O)[C@H](CCC(=O)O)N(C)C(=O)[C@H](Cc2c[nH]c3ccccc23)NC(=O)[C@@H]2CNCCN2C(=O)[C@H](Cc2ccncc2)NC1=O [SEQ ID NO. 225] (cyclo([4Pal][Trp(7-Cl)][αMeS][Phe(4-COOH)]Y[Sar][Trp(βS-Me,7-OMe)][X1][Nle][4Pal][Pip(4-aza)]W[NMeE][Dap(CONH2)]))		0.27	0.9		
CCCC[C@@H]1NC(=O)CSC[C@@H](C(N)=O)NC(=O)[C@H]([C@@H](C)c2c[nH]c3c(OC)cccc23)NC(=O)CN(C)C(=O)[C@H](Cc2ccc(O)cc2)NC(=O)[C@H](Cc2ccc(C(=O)O)cc2)NC(=O)[C@](C)(CO)NC(=O)[C@H](Cc2c[nH]c3c(Cl)cccc23)NC(=O)[C@H](Cc2ccncc2)NC(=O)[C@H](CC(N)=O)NC(=O)CN(CCC#N)C(=O)[C@H](Cc2c[nH]c3ncccc23)NC(=O)[C@@H]2CCCCN2C(=O)[C@H](Cc2ccncc2)NC1=O [SEQ ID NO. 228] ({CH2CO}-[Nle][4Pal][Pip][Trp(7-aza)][X33]N[4Pal][Trp(7-Cl)][αMeS][Phe(4-COOH)]Y[Sar][Trp(βS-Me,7-OMe)]C-NH2; thioether N-14)	0.7	0.64	4		
CCCC[C@@H]1NC(=O)CSC[C@@H](C(N)=O)NC(=O)[C@H]([C@@H](C)c2c[nH]c3c(OC)cccc23)NC(=O)CN(C)C(=O)[C@H](Cc2ccc(O)cc2)NC(=O)[C@H](Cc2ccc(C(=O)O)cc2)NC(=O)[C@](C)(CO)NC(=O)[C@H](Cc2c[nH]c3c(Cl)cccc23)NC(=O)[C@H](Cc2ccco2)NC(=O)[C@H](CC(N)=O)NC(=O)[C@H]2CCCN2C(=O)[C@H](Cc2c[nH]c3ccccc23)NC(=O)[C@@H]2CNCCN2C(=O)[C@H](Cc2ccncc2)NC1=O [SEQ ID NO. 236] ({CH2CO}-[Nle][4Pal][Pip(4-aza)]W[dP]N[Ala(2-furyl)][Trp(7-Cl)][αMeS][Phe(4-COOH)]Y[Sar][Trp(βS-Me,7-OMe)]C-NH2; thioether N-14)	0.9		4.2		
COc1cccc2c([C@H](C)[C@@H]3NC(=O)CN(C)C(=O)[C@H](Cc4ccc(O)cc4)NC(=O)[C@H](Cc4ccc(C(N)=O)cc4)NC(=O)[C@](C)(CO)NC(=O)[C@H](Cc4c[nH]c5c(Cl)cccc45)NC(=O)[C@H](Cc4ccncc4)NC(=O)[C@H](CC(N)=O)NC(=O)[C@H](CCC(=O)O)N(C)C(=O)[C@H](Cc4c[nH]c5ccccc45)NC(=O)[C@@H]4CC[C@@H](O)CN4C(=O)[C@H](Cc4ccncc4)NC(=O)[C@H](CCCCN(C)C)NC(=O)[C@@H]4CC[C@@H](C4)NC3=O)c[nH]c12 [SEQ ID NO. 238] (cyclo([4Pal][Trp(7-Cl)][αMeS][Phe(4-CONH2)]Y[Sar][Trp(βS-Me,7-OMe)][X1][Lys(Me2)][4Pal][Pip(5R-OH)]W[NMeE]N))		0.12	0.7		
CCCC[C@@H]1NC(=O)[C@@H]2CC[C@@H](C2)NC(=O)[C@H]([C@@H](C)c2c[nH]c3c(OC)cccc23)NC(=O)CN(C)C(=O)[C@H](Cc2ccc(O)cc2)NC(=O)[C@H](Cc2ccc(C(=O)O)cc2)NC(=O)[C@](C)(CO)NC(=O)[C@H](Cc2c[nH]c3c(Cl)cccc23)NC(=O)[C@H](Cc2ccncc2)NC(=O)[C@H](CC(N)=O)NC(=O)[C@H](CCC(=O)O)N(C)C(=O)[C@H](Cc2c[nH]c3ccccc23)NC(=O)[C@@H]2CNCCN2C(=O)[C@H](Cc2ccc(OC)nc2)NC1=O [SEQ ID NO. 241] (cyclo([4Pal][Trp(7-Cl)][αMeS][Phe(4-COOH)]Y[Sar][Trp(βS-Me,7-OMe)][X1][Nle][3Pal(6-OMe)][Pip(4-aza)]W[NMeE]N))		0.24	1.4		
CCCC[C@@H]1NC(=O)CSC[C@@H](C(N)=O)NC(=O)[C@H]([C@@H](C)c2c[nH]c3c(OC)cccc23)NC(=O)CN(C)C(=O)[C@H](Cc2ccc(O)cc2)NC(=O)[C@H](Cc2cccc(C(=O)O)c2)NC(=O)[C@](C)(CO)NC(=O)[C@H](Cc2c[nH]c3c(Cl)cccc23)NC(=O)[C@H](Cc2ccncc2)NC(=O)[C@H](CC(N)=O)NC(=O)[C@H](CCC(=O)O)N(C)C(=O)[C@H](Cc2c[nH]c3ccccc23)NC(=O)[C@@H]2CNCCN2C(=O)[C@H](Cc2ccncc2)NC1=O [SEQ ID NO. 249] ({CH2CO}-[Nle][4Pal][Pip(4-aza)]W[NMeE]N[4Pal][Trp(7-Cl)][αMeS][Phe(3-COOH)]Y[Sar][Trp(βS-Me,7-OMe)]C-NH2; thioether N-14)	1		4.4		

Source: patent publication US20240287138A1, “CYCLIC PEPTIDES FOR INHIBITING TNF RECEPTOR 1 ACTIVITY” (Merck Sharp & Dohme LLC, priority 2023, published 2024)
